# Measured values from US20030017186A1, “Carboxylic acid fluorides as pesticides” (priority 1999, published 2003).
# Legend:
# [1] = test system: House longhorn beetle (Hylotrupes bajulus); test: Fumigation test in glass vessel, house longhorn beetles; type: in vivo
# [2] = test system: Common furniture beetle (Anobium punctatum); test: Fumigation test in glass vessel, common furniture beetles; type: in vivo; details: ANOBPU beetles; Example 5; ACF 50.6/48.2/51.4 g/m^3, SF 47.4/44.6/41 g/m^3 (1st/2nd/3rd fumigation); 23/23/22° C.
# Text: b2) Common furniture beetle (Anobium punctatum)=[…]
# (§1) The test organisms, separated by species, were placed into a glass vessel measuring 30 cm×30 cm×60 cm, which was sealed with a glass lid so as to be airtight. The adults and the larvae of the mealworm beetle (Tenebrio molitor) and the broad-horned flour beetle (Gnathocerus cornutus) were placed into small glass vessels approximately 5 cm in diameter, which were closed with a gauze lid and in which they could freely move about. The larvae of the rice weevil had burrowed into seeds of grain. The wood pest larvae were inserted into small blocks of wood measuring 5 cm×2.5 cm×2 cm. The openings were sealed with wads of cotton wool. Only one each of the larvae of the house longhorn beetle (Hylotrupes bajulus) was inserted into a piece of wood, while 6-8 larvae of the common furniture beetle (Anobium punctatum) were inserted into each piece of wood.
# (§2) The respective gas was then introduced into the fumigation vessel through a gas line from a gas tank that contained the specified amount of gas. After a defined time period, the fumigation vessel was purged with compressed air. The discharged gas was purified by an attached gas scrubber.
# (§3) The beetles were observed until they died. This point was recorded for each species. The larvae of the wood pests as well as the larvae of the rice weevil (Sitophilus oryzae) had to be picked out of the wood or the grain to check their condition. If any of the animals were still alive, the wooden test blocks remaining in the vessel were fumigated again and were reexamined after the corresponding time span had elapsed. The same number of animals in the untreated control was also checked at each point.
# (§4) The vitality of the animals was checked at certain time intervals. The beetles could be observed through the fumigation vessel. This was also true for the larvae of the mealworm beetle and the broad-horned flour beetle. The wooden test blocks of the wood pest larvae were opened with hammer and chisel. Tweezers were used to pull the rice weevil larvae out of the grain seeds. The exact time intervals and the number of the evaluated pests were documented in the test results.
# [3] = test system: Common furniture beetle (Anobium punctatum) larvae; test: Fumigation test in glass vessel, common furniture beetle larvae in wood blocks; type: in vivo; details: ANOBPU larvae in wood blocks
# [4] = test system: Mealworm beetle (Tenebrio molitor) larvae; test: Fumigation test in glass vessel, mealworm beetle larvae; type: in vivo; details: TENEMO larvae
# [5] = test system: Rice weevil (Sitophilus oryzae); test: Fumigation test in glass vessel, rice weevils; type: in vivo; details: SITTOR beetles
# [6] = test system: Broad-horned flour beetle (Gnathocerus cornutus) larvae; test: Fumigation test in glass vessel, broad-horned flour beetle larvae; type: in vivo; details: GNATCO larvae
# [7] = test system: Saw-toothed grain beetle (Oryzaephilus surinamensis); test: Fumigation test in glass vessel, saw-toothed grain beetles; type: in vivo; details: ORYZSA beetles
# [8] = test system: American drywood termites (Cryptotermes brevis); test: Termite control fumigation test, Cryptotermes brevis; type: in vivo; details: Example 6
# Text: (§5) c) American drywood termites (Cryptotermes brevis)=CRYPBR, and Incisitermes tabogae=INCITA
# as §1, §2, §3, §4
# Incisitermes tabogae = test: Termite control fumigation test, Incisitermes tabogae; type: in vivo; details: Example 6
# Text: as §5, §1, §2, §3, §4
# wood and storage pests = test: Fumigation test, wood and storage pests (overall statements); type: in vivo
# Text: as §1, §2, §3, §4
# termites = test: Termite control fumigation test (overall statements); type: in vivo, Cryptotermes brevis, Incisitermes tabogae; details: Example 6
# Text: as §5, §1, §2, §3
# as §4, with “The wooden test blocks of the wood pest larvae were opened with hammer and chisel. Tweezers were used to pull the rice weevil larvae out of the grain seeds.” left out
# [9] = HYLOBA beetles, Example 5, ACF 50.6/48.2/51.4 g/m^3, SF 47.4/44.6/41 g/m^3 (1st/2nd/3rd fumigation), 23/23/22° C.
# [10] = HYLOBA beetles, Example 7, ACF 53.0/54.6/0 g/m^3, second gas (SF) 43.6/41.4/39.8 g/m^3 (1st/2nd/3rd fumigation), 20.0/20.2/19.8 C.
# [11] = Example 5, ACF 50.6/48.2/51.4 g/m^3, SF 47.4/44.6/41 g/m^3 (1st/2nd/3rd fumigation), 23/23/22° C.
# [12] = Example 7, ACF 53.0/54.6/0 g/m^3, second gas (SF) 43.6/41.4/39.8 g/m^3 (1st/2nd/3rd fumigation), 20.0/20.2/19.8 C.
# [13] = Example 4, gas 36.5 g/m^3, 19.3° C., 54% rel. air humidity
# [14] = CRYPBR termites, ACF 50.0/53.8 g/m^3, SF 47.8/44.8 g/m^3 (1st/2nd fumigation), 23.7/24° C.
# [15] = INCITA termites, ACF 50.0/53.8 g/m^3, SF 47.8/44.8 g/m^3 (1st/2nd fumigation), 23.7/24° C.
smiles,measurement,setting,value
"CC(=O)F [ACF, acetyl fluoride]",Time after which the house longhorn beetles were dead,"[1]; Example 4, 3 house longhorn beetles, gas 36.5 g/m^3, 19.3° C.",15 min
same,"Number alive, 30 min. after Start of Fumigation",[1]; [9],0
same,"Number dead, 30 min. after Start of Fumigation",[1]; [9],4
same,"Number alive, 30 min. after 1st Fumigation",[1]; [10],3
same,"Number alive, 1 hr. after 1st Fumigation",[1]; [10],0
same,"Number dead, 30 min. after 1st Fumigation",[1]; [10],3
same,"Number dead, 1 hr. after 1st Fumigation",[1]; [10],6
same,"Number alive, 30 min. after Start of Fumigation",[2],0
same,"Number dead, 30 min. after Start of Fumigation",[2],6
same,"Number alive, 1 hr. after Start of Fumigation",[3]; [11],1
same,"Number alive, 3 hrs. after Start of Fumigation",[3]; [11],2
same,"Number alive, 6 hrs after Start of Fumigation",[3]; [11],0
same,"Number dead, 1 hr. after Start of Fumigation",[3]; [11],3
same,"Number dead, 3 hrs. after Start of Fumigation",[3]; [11],2
same,"Number dead, 6 hrs after Start of Fumigation",[3]; [11],8
same,"Number alive, 1 hr. after 1st Fumigation",[3]; [12],5
same,"Number alive, 3 hrs. after 1st Fumigation",[3]; [12],2
same,"Number alive, 6 hrs after 1st Fumigation",[3]; [12],4
same,"Number dead, 1 hr. after 1st Fumigation",[3]; [12],1
same,"Number dead, 3 hrs. after 1st Fumigation",[3]; [12],4
same,"Number dead, 6 hrs after 1st Fumigation",[3]; [12],2
same,"Number alive, 1 hr. after Start of Fumigation",[4]; [13],5
same,"Number alive, 2 hrs. after Start of Fumigation",[4]; [13],0
same,"Number dead, 1 hr. after Start of Fumigation",[4]; [13],5
same,"Number dead, 2 hrs. after Start of Fumigation",[4]; [13],10
same,"Number alive, 30 min. after Start of Fumigation",[4]; [11],0
same,"Number dead, 30 min. after Start of Fumigation",[4]; [11],10
same,"Number alive, 30 min. after 1st Fumigation",[4]; [12],5
same,"Number alive, 1 hr. after 1st Fumigation",[4]; [12],0
same,"Number dead, 30 min. after 1st Fumigation",[4]; [12],5
same,"Number dead, 1 hr. after 1st Fumigation",[4]; [12],10
same,"Number alive, 1 hr. after Start of Fumigation",[5]; [13],0
same,"Number dead, 1 hr. after Start of Fumigation",[5]; [13],25
same,"Number alive, 30 min. after Start of Fumigation",[5]; [11],0
same,"Number dead, 30 min. after Start of Fumigation",[5]; [11],15
same,"Number alive, 30 min. after 1st Fumigation",[5]; [12],0
same,"Number dead, 30 min. after 1st Fumigation",[5]; [12],15
same,"Number alive, 1 hr. after Start of Fumigation",[6]; [13],0
same,"Number dead, 1 hr. after Start of Fumigation",[6]; [13],25
same,"Number alive, 30 min. after Start of Fumigation",[6]; [11],0
same,"Number dead, 30 min. after Start of Fumigation",[6]; [11],15
same,"Number alive, 30 min. after 1st Fumigation",[6]; [12],0
same,"Number dead, 30 min. after 1st Fumigation",[6]; [12],15
same,"Number alive, 1 hr. after Start of Fumigation",[7]; [13],0
same,"Number dead, 1 hr. after Start of Fumigation",[7]; [13],25
same,"Number alive, 30 min. after Start of Fumigation",[7]; [11],0
same,"Number dead, 30 min. after Start of Fumigation",[7]; [11],15
same,"Number alive, 30 min. after 1st Fumigation",[7]; [12],0
same,"Number dead, 30 min. after 1st Fumigation",[7]; [12],15
same,"Number alive, 30 min. after 1st Fumigation",[8]; [14],180
same,"Number alive, 1 hr. after 1st Fumigation",[8]; [14],60
same,"Number alive, 3 hrs. after 1st Fumigation",[8]; [14],0
same,"Number dead, 30 min. after 1st Fumigation",[8]; [14],0
same,"Number dead, 1 hr. after 1st Fumigation",[8]; [14],0
same,"Number dead, 3 hrs. after 1st Fumigation",[8]; [14],120
same,Effectiveness against Cryptotermes,[8],particularly effective
same,Condition of Cryptotermes on reexamination after 24-hour observation period,"[8]; animals fumigated 1 hour, then 24-hour observation",dead
same,Number of Incisitermes still alive on reexamination after 24-hour observation period,"Incisitermes tabogae; out of 30 animals fumigated 1 hour, then 24-hour observation",3
same,"Number alive, 30 min. after 1st Fumigation",Incisitermes tabogae; [15],90
same,"Number alive, 1 hr. after 1st Fumigation",Incisitermes tabogae; [15],30
same,"Number alive, 3 hrs. after 1st Fumigation",Incisitermes tabogae; [15],0
same,"Number dead, 30 min. after 1st Fumigation",Incisitermes tabogae; [15],0
same,"Number dead, 1 hr. after 1st Fumigation",Incisitermes tabogae; [15],0
same,"Number dead, 3 hrs. after 1st Fumigation",Incisitermes tabogae; [15],60
same,Effectiveness against exposed beetles and larvae,wood and storage pests; Conclusion of Examples 1-5,very effective
same,Comparison of action on wood and storage pests,"wood and storage pests; Example 7, against several of the pest species tested",superior to chlorodifluoroacetyl fluoride
same,Effectiveness against termites in comparison test,termites; compared with SO2F2,as effective as SO2F2
same,Speed of effect on termites in wood,"termites; compared with sulfuryl fluoride, penetrates wood more quickly",slightly faster effect
